Test results as given in patent US20130136721A1, “Compositions and Methods of Generating a Differentiated Mesodermal Cell” (THE JOHNS HOPKINS UNIVERSITY, priority 2010, published 2013).
Entries after “also recorded” stand apart in the source; their conditions may differ.

Key:
Format in all cases: cell-based, human
H9 hESC = experiment: Beating hEB assay (contracting hEB after forced aggregation cardiac differentiation); details: for effect on cardiac differentiation, phase 2 medium: supplement in d0-d2 medium; for effect on cardiac differentiation, phase 2 medium / effect on cardiac differentiation, phase 3 medium: contracting hEB d9; for effect on cardiac differentiation, phase 3 medium: supplement in d2-d4 medium; for effect on cardiac differentiation, phase 4 medium: supplement in d4 onwards medium
Text: The cardiac differentiation protocol was divided into four distinct phases for optimization (FIG. 3A): phase 1: uniform undifferentiated growth; phase 2: hEB formation/mesoderm induction; phase 3: hEB cardiac specification; phase 4: contracting cardiomyocyte development. […] After an initial round of optimizations had been completed, optimizations was repeated a second time to account for the new media formulations and then a third time to optimize the final media formulation. In some cases fourth and fifth repeats were performed to improve the statistical power of the results. For each variable tested, the bell-curve distribution of dose-response was determined. Results shown are averages of the 2nd-5th replicates (FIG. 2B).
For forced aggregation hEB differentiations, confluent hESC or hiPSC which had been grown on a commercially available extracellular matrix, Geltrex (Invitrogen) as monolayers for 3 to 13 passages were passaged with TrypLE Select and seeded at 2.5×10^6 per T25 flask. After 24 hours growth, cells were washed with PBS and treated with room temperature TrypLE Select for 1 minute at 37° C. Cells were seeded at 5000 cells per well in 96-well V-bottom uncoated plates (249952, NUNC) in 100 μL per well RPMI+PVA medium consisting of RPMI Media 1640 (with L-Glutamine), 4 mg mL-1 polyvinyl alcohol (P8136, Sigma, dissolved in RPMI at 4° C. for at least 72 hours, mixing by inversion every day), 1% chemically defined lipid concentrate, 10 μg mL-1 recombinant human insulin (Sigma), 400 μM 1-thioglycerol (Sigma), 25 ng mL-1 BMP4 and 5 ng mL-1 FGF2 (both from R&D systems), 1 μM Y-27632 (Calbiochem). This medium is not stable and was made fresh for each experiment. After 48 hours (on day 2) medium was aspirated with a Costar 8-channel aspirator (Corning) and replaced with RPMI+FBS medium consisting RPMI Media 1640, 20% characterized FBS (Hyclone), 400 μM 1-thioglycerol. On day 4 media was changed to RPMI+PVA without growth factors and hEB were transferred to 96-well U-bottom tissue culture treated plates (650180, Greiner Bio-One). Media was changed on d7 and every 3 days afterwards. hEB were visually assessed for contraction on d9 using a Nikon Eclipse Ti inverted tissue culture microscope with a TOKAI-HIT heated stage (Nikon). Images were captured using NIS-Elements (Nikon). […] For traditional cardiac differentiations using FBS, undirected differentiation was performed as previously described (Kehat et al. J Clin Invest 108, 407-414 (2001)): briefly, confluent H9 hESC grown as colonies on MEF were treated with collagenase IV for 5 minutes at 37° C. then washed from the plate using a 5 mL pipette. Cell clusters were then transferred to Petri dishes in 20% FBS medium for 7 days. hEB were then transferred to gelatin coated tissue culture plates. Media was changed every 3 days.
One single replicate consists of one 96-well plate. Repeat replicates were performed 1-4 months apart using a different vial of cells. Each experiment was repeated at least 3 times representing at least 288 hEB. Total number of hEB assessed in this work exceeds 80,000. Wells in which no hEB was detected due to pipeting error were excluded and accounted for approximately 1-5% of wells. P-values were established using unpaired two-tailed Student's t-test.

H9 hEB = experiment: Voltage optical micromapping of contracting hEB (action potential duration); details: 20 μM isoproterenol, 4 hEB, mean±s.d., p≈0.01 paired t-test
Description: Cardiac markers and structural protein expression was assessed using immunofluorescence staining. […] To assess quality of hPSC-derived cardiomyocytes that were generated using this method and suitability for future applications such as cardiotoxicity testing, the electrophysiological properties were assessed via optical mapping. hEB were either mechanically dissected and plated onto fibronectin-coated glass coverslips for micromapping, or approximately 200 hEB were dissociated into single cells and plated in a 10 mm diameter area as a confluent monolayer for macromapping. hEB and monolayers were then stained with either voltage- or calcium-sensitive dye and optically mapped to visualize spontaneous activity and response to electrical field stimulation (FIG. 12A). […] To assess cardioactive drug responsiveness, 20 μM isoproterenol or 100 μM pinacidil was added to cardiomyocyte monolayers or hEB to test for beta-adrenergic stimulation response and the presence of functional KATP channels, respectively. […] Contracting hEB derived from the hiPSC line 6.2 were tested in the same manner and yielded similar results. […]

[1] = system: hESC-derived cardiomyocyte monolayer; experiment: Voltage macromapping of cardiomyocyte monolayer (action potential duration); details: for effect on action potential: 20 μM isoproterenol or 100 μM pinacidil added to cardiomyocyte monolayers or hEB; for action potential duration: 0.67 Hz pacing, mean±s.d., 20 μM isoproterenol or 100 μM pinacidil, control 363±137 ms
Description: Cardiac markers and structural protein expression was assessed using immunofluorescence staining. […] To assess quality of hPSC-derived cardiomyocytes that were generated using this method and suitability for future applications such as cardiotoxicity testing, the electrophysiological properties were assessed via optical mapping. hEB were either mechanically dissected and plated onto fibronectin-coated glass coverslips for micromapping, or approximately 200 hEB were dissociated into single cells and plated in a 10 mm diameter area as a confluent monolayer for macromapping. hEB and monolayers were then stained with either voltage- or calcium-sensitive dye and optically mapped to visualize spontaneous activity and response to electrical field stimulation (FIG. 12A). […] To assess cardioactive drug responsiveness, 20 μM isoproterenol or 100 μM pinacidil was added to cardiomyocyte monolayers or hEB to test for beta-adrenergic stimulation response and the presence of functional KATP channels, respectively. […] Contracting hEB derived from the hiPSC line 6.2 were tested in the same manner and yielded similar results.
For optical micromapping (Weinberg et al., Methods Mol Biol 660, 215-237 (2010), contracting hEB were mechanically dissected, plated on fibronectin-coated glass coverslips and given at least 5 days to attach. hEB were then stained with either 10 μM Rhod-2-AM calcium dye for 20 minutes or 10 μM di-4-ANEPPS voltage dye for 5 minutes. After several rinses with Tyrode's solution (135 mM NaCl, 5.4 mM KCl, 1.8 mM CaCl2, 1 mM MgCl2, 0.33 mM NaH2PO4, 5 mM HEPES, and 5 mM glucose), hEB were incubated with 30 μM blebbistatin for 15 minutes to inhibit excitation-contraction coupling and subsequently prevent signal distortion due to motion artifact. The absence of hEB contraction was confirmed visually. hEB were then excited at 530 nm to visualize spontaneous activity and response to electrical field stimulation. Imaging of transmembrane potential (Vm) or intracellular calcium (Cai) was performed using an Andor iXon+860 electron multiplying charged coupled device (EMCCD) camera (128×128 pixels) at 490 Hz sampling rate. […] Macromapping of hESC-CM monolayers was performed using contact fluorescent imaging, in which maps of Vm were recorded by placing the monolayer directly on top of a bundle of 253 optical fibers 1 mm in diameter, arranged in a tightly packed, 17-mmdiameter hexagonal array. […] To analyze data, the individual recorded signals recorded were spatially filtered using a 5×5 box filter, temporally filtered using a 10 point median filter, baseline-corrected by subtraction of a fitted 3rd order polynomial, and range-normalized. […] Uniformity of APD was assessed by the coefficient of variation. […]

## OCC(O)CS (stereo not drawn) [1-thioglycerol]
H9 hESC
  effect on cardiac differentiation, phase 2 medium: resulted in high efficiency cardiac differentiation
  effect on cardiac differentiation, phase 3 medium: most suitable antioxidant for this phase
  effect on cardiac differentiation, phase 4 medium: essential for this d4+ phase

## O=C1O[C@H]([C@@H](O)CO)C(O)=C1O [L-ascorbic acid]
H9 hESC
  effect on cardiac differentiation, phase 2 medium: either did not further enhance differentiation or had negative effects on differentiation
  effect on cardiac differentiation, phase 3 medium: Neither transferrin, L-ascorbic acid, lipids or NEAA enhanced this phase of differentiation

## NC(=O)CC[C@H](N)C(=O)O [L-glutamine]
H9 hESC
  effect on cardiac differentiation, phase 2 medium: either did not further enhance differentiation or had negative effects on differentiation
  effect on cardiac differentiation, phase 3 medium: did not enhance cardiac differentiation

## C[C@@H](N)[C@H]1CC[C@H](C(=O)Nc2ccncc2)CC1 [Y-27632, reference compound]
H9 hESC
  effect on cardiac differentiation, phase 2 medium: further improved reproducibility and cardiac differentiation

## CC(C)NCC(O)c1ccc(O)c(O)c1 (stereo not drawn) [isoproterenol]
H9 hEB
  shortening of the mean APD: 23 ± 8 ms
[1]
  effect on action potential: shortening of the action potential
  action potential duration: 262 ± 107 ms

## CC(N/C(=N\C#N)Nc1ccncc1)C(C)(C)C (stereo not drawn) [pinacidil]
[1]
  effect on action potential: shortening of the action potential
  action potential duration: 257 ± 56 ms

## FGF2: fibroblast growth factor 2
H9 hESC
  effect on cardiac differentiation, phase 3 medium: did not further enhance this phase; also recorded: did not enhance cardiac differentiation

## IGF1: growth factor titrated between 1-100 ng mL-1
H9 hESC
  effect on cardiac differentiation, phase 2 medium: none were found to have the same potency as BMP4

## IGF2: growth factor titrated between 1-100 ng mL-1
H9 hESC
  effect on cardiac differentiation, phase 2 medium: none were found to have the same potency as BMP4

## TGFB
H9 hESC
  effect on cardiac differentiation, phase 2 medium: none were found to have the same potency as BMP4

## WNT3A
H9 hESC
  effect on cardiac differentiation, phase 2 medium: none were found to have the same potency as BMP4

## insulin: recombinant human insulin (Sigma)
H9 hESC
  effect on cardiac differentiation, phase 3 medium: completely abrogated cardiac specification; also recorded: completely ablated cardiac differentiation
  effect on cardiac differentiation, phase 4 medium: did not effect this d4+ phase
H9 hESC; supplement in serum-free d2-d4 medium
  effect on cardiac differentiation, xeno- and serum-free d2-d4 medium: inhibited cardiac differentiation
